Read-outs that look alike come from different tables or passages of the source.
Legend:
[1] = In vitro metabolism, incubations with human liver microsomes; type: in vitro ADME
Procedure: (§1) Human liver microsomes (0.5 mg/mL; mixed gender, ultrapooled, BD Biosciences, catalog number 452117) were incubated at 37±1° C. in 0.2 mL (final volume) of incubation mixtures containing potassium phosphate buffer (100 mM, pH7.4), MgCl2 (3 mM), NADPH (1 mM), and the atropisomers (1, 10, or 50 μM) (all experiments performed in duplicate). Stock solutions of atropisomers were prepared with DMSO at 100 mM. The final concentration of DMSO in the incubation was at or less than 0.05%. Reactions were initiated by addition of NADPH solution and terminated at predetermined time point (30 min) by addition of stop reagent (300 μL chilled acetonitrile containing 0.1 μM of 7-hydroxycoumarin as an internal standard). After incubation, microsomal proteins were precipitated by centrifugation at 3300×g for 15 min at 4° C. Supernatant fractions were analyzed by LC-MS/MS.
(§2) HPLC mass spectrometer system: An API4000 triple quadrupole mass spectrometer equipped with electrospray ionization ion source was used for quantitation and operated in positive mode. The HPLC system consisted of a CTC Analytics PAL autosampler, an Agilent 1100 series degasser (G1379A), and an Agilent 1100 series binary pump (G1312A). […]
(§3) The formation of M3, M3c, M4 and M6 from each atropisomer in liver microsomal and recombinant CYP incubations was determined, based on the peak area ratio of analyte over internal standard (IS)

[2] = Atropisomer interconversion, thermal challenge in organic solvent (acetonitrile); type: physicochemical
Procedure: (§4) The individual atropisomers of Compound (I), atropisomer 1 and atropisomer 2 (elution order from normal-phase chiral chromatography) were exposed to various conditions, including thermal challenge in both organic and aqueous media and exposure to simulated biological conditions, to ascertain whether they readily interconvert.
Samples of each separate atropisomers were held at 60° C. for four days and then analyzed by high performance liquid chromatography (AGMS02 Agilent 1100) on a normal phase amylose-based chiral column (ChiralPak IA-3, 3 μm, 100×4.6 mm, column 244), using isocratic elution and UV detection at 226 nm (see example 1).

[3] = In vitro metabolism, human liver microsomes in the presence of mEH inhibitor valpromide; type: in vitro ADME
Procedure: as §1, with “atropisomer” for “and the atropisomers”, “50 μM) and valpromide (0, 50, or 100” for “50”, “duplicate).” for “duplicate). Stock solutions of atropisomers were prepared with DMSO at 100 mM. The final concentration of DMSO in the incubation was at or less than 0.05%.”
as §2, §3

[4] = Atropisomer interconversion, thermal challenge in aqueous solvent (dilute sodium bicarbonate); type: physicochemical
Procedure: as §4
Atropisomer 1 was dissolved in dilute aqueous sodium bicarbonate solution. Atropisomer 2 was dissolved in dilute aqueous sodium bicarbonate solution. […] Samples of the resulting solutions were exposed to room temperature (rt), 60° C., and 100° C. for four days. After four days, the samples were concentrated to dryness (SpeedVac evaporator—DNA120, property H001630), redissolved in acetonitrile and analyzed by high performance liquid chromatography (AGMS02 Agilent 1100) on a normal phase amylose-based chiral column (ChiralPak IA-3, 3 μm, 100×4.6 mm, column 244), using isocratic elution and UV detection at 226 nm (see example 1). […] Sample chromatograms at t0, 60° C., and 100° C. after four days, are depicted in FIG. 3A, FIG. 3B and FIG. 3C respectively.

[5] = In vivo human metabolism, plasma and urine pharmacokinetics after single oral dose of racemic Compound (I); details: human
Procedure: Plasma samples were collected prior to dosing (within 30 minutes before dosing) and at the following timepoints: 0.5, 1, 1.5, 2, 3, 4, 5, 6, 8, 10, 12, and 24 hours postdose. Urine was also collected. […] The supernatant was diluted with injection solvent and analyzed by HPLC with tandem mass spectrometry (LC/MS/MS). […] The calibration curves were linear over the concentration range between 5.00 ng/mL and 2000 ng/mL with a lower limit of quantification (LLOQ) of 5.00 ng/mL.
Using the above data, the following plasma pharmacokinetic parameters were calculated using validated Phoenix WinNonlin, version 6.3 (Pharsight Corporation, Mountain View, Calif.) and are shown (geometric mean 95% CI) in tables 11, 12, and 13 below.
• Cmax: Maximum observed concentration (μg/mL) • Tmax: Time of occurrence of maximum observed concentration (hr) • AUC0-24: Area under plasma concentration-vs-time curve, from time 0 to 24 hours postdose (μg·hr/mL) • C24: Concentration 24 hours post dose (μg/mL) • t1/2: Apparent terminal half-life (hr)

recombinant human CYP2C9 = recombinant human CYP2C9 (Homo sapiens, UniProt P11712); assay: Metabolite formation with recombinant human CYP2C9; type: in vitro ADME
Procedure: as §3

[6] = Urine PK Parameters (Geometric mean, CI 95%), single oral 400 mg racemic Compound (I)
[7] = plasma, geometric mean, single oral 400 mg racemic Compound (I)

Sequence of recombinant human CYP2C9 (P11712 whole entry): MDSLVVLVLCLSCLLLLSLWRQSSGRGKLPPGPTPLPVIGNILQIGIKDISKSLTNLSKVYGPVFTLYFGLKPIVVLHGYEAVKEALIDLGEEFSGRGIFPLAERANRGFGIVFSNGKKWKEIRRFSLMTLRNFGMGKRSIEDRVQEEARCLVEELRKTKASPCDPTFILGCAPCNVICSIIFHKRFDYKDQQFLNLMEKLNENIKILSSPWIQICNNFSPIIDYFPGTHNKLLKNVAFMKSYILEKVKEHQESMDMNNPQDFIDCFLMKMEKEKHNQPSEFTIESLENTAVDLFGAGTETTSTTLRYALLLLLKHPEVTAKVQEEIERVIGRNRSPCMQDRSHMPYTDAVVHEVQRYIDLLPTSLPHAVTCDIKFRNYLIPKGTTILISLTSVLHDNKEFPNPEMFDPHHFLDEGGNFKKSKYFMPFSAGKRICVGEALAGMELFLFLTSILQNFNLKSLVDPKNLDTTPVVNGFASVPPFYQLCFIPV

For `O=C(O)CSc1nnc(Br)n1-c1ccc(C2CC2)c2ccccc12` (single isomer, unassigned) [Atropisomer 1, (−)-2-(5-bromo-4-(4-cyclopropylnaphthalen-1-yl)-4H-1,2,4-triazol-3-ylthio)acetic acid], the M3c formation [1] was “predominantly formed”, the “% Atropisomer 1” value ([2]; acetonitrile 0.25 mg/mL, t0) was 99.7% and the “% Atropisomer 2” value ([2]; acetonitrile 0.25 mg/mL, t0) was 0.3%. The “% Atropisomer 1” value ([2]; acetonitrile, 60° C. 4 days) was 99.7%, the “% Atropisomer 2” value ([2]; acetonitrile, 60° C. 4 days) was 0.3% and the “M3c level in the presence of valpromide (mEH inhibitor)” value [3] was “greatly increased”. The “% Atropisomer 1” value ([4]; 60° C. 4 days) was 99.8%, the “% Atropisomer 2” value ([4]; 60° C. 4 days) was 0.2% and the “% Atropisomer 1” value ([4]; 100° C. 4 days) was 99.6%. For the same compound, the “% Atropisomer 2” value ([4]; 100° C. 4 days) was 0.4%, the “% Atropisomer 1” value ([4]; rt, 4 days) was 99.8% and the “% Atropisomer 2” value ([4]; rt, 4 days) was 0.2%. The “% Atropisomer 1” value ([4]; t0 (control)) was 99.8%, the “% Atropisomer 2” value ([4]; t0 (control)) was 0.2% and the Ae0-24 [5, 6] was 66.3 mg. For the same compound, the CLR0-24 [5, 6] was 42.6 mL/min, the concentration at 0.5 h ([5]; male, plasma, po, 400 mg, 0.5 hr postdose, single oral 400 mg Compound (I) racemic mixture, adult male subjects) was 65 ng/mL and the concentration at 1 h ([5]; male, plasma, po, 400 mg, 1 hr postdose, single oral 400 mg Compound (I) racemic mixture, adult male subjects) was 1720 ng/mL. It also gave a concentration at 1.5 h ([5]; male, plasma, po, 400 mg, 1.5 hr postdose, single oral 400 mg Compound (I) racemic mixture, adult male subjects) of 3600 ng/mL, a concentration at 2 h ([5]; male, plasma, po, 400 mg, 2 hr postdose, single oral 400 mg Compound (I) racemic mixture, adult male subjects) of 4460 ng/mL and a concentration at 3 hr ([5]; male, plasma, po, 400 mg, 3 hr postdose, single oral 400 mg Compound (I) racemic mixture, adult male subjects) of 5740 ng/mL. It also gave a concentration at 4 hr ([5]; male, plasma, po, 400 mg, 4 hr postdose, single oral 400 mg Compound (I) racemic mixture, adult male subjects) of 4560 ng/mL, a concentration at 5 hr ([5]; male, plasma, po, 400 mg, 5 hr postdose, single oral 400 mg Compound (I) racemic mixture, adult male subjects) of 3430 ng/mL and a concentration at 6 hr ([5]; male, plasma, po, 400 mg, 6 hr postdose, single oral 400 mg Compound (I) racemic mixture, adult male subjects) of 1960 ng/mL. The concentration at 8 hr ([5]; male, plasma, po, 400 mg, 8 hr postdose, single oral 400 mg Compound (I) racemic mixture, adult male subjects) was 811 ng/mL, the concentration at 10 hr ([5]; male, plasma, po, 400 mg, 10 hr postdose, single oral 400 mg Compound (I) racemic mixture, adult male subjects) was 415 ng/mL and the concentration at 12 hr ([5]; male, plasma, po, 400 mg, 12 hr postdose, single oral 400 mg Compound (I) racemic mixture, adult male subjects) was 248 ng/mL. The concentration at 24 h ([5]; male, plasma, po, 400 mg, 24 hr postdose, single oral 400 mg Compound (I) racemic mixture, adult male subjects) was 33 ng/mL, the AUC(0-t) ([5]; male, plasma, po, 400 mg, Plasma Concentration (Mean), single oral 400 mg racemic Compound (I), read-out: AUC0-24) was 27100 ng·h/mL and the Cmax ([5]; male, plasma, po, 400 mg, Plasma Concentration (Mean), single oral 400 mg racemic Compound (I), read-out: Cmax) was 6600 ng/mL. For the same compound, the Cmax ([5]; male, plasma, po, 400 mg, plasma, geometric mean, single oral 400 mg racemic Compound (I), read-out: Cmax: Maximum observed concentration) was 6230 ng/mL, the half-life ([5]; male, plasma, po, 400 mg, plasma, geometric mean, single oral 400 mg racemic Compound (I), read-out: t1/2: Apparent terminal half-life (converted)) was 3.59 h and the concentration at 0 h ([5]; male, plasma, po, 400 mg, time 0 hr (prior to dosing), single oral 400 mg Compound (I) racemic mixture, adult male subjects) was 0 ng/mL. For the same compound, the Tmax ([5]; male, plasma, po, 400 mg, read-out: Tmax: Time of occurrence of maximum observed concentration) was 3 h, the “AUC0-24: Area under plasma concentration-vs-time curve, from time 0 to 24 hours postdose” value [5, 7] was 25.9 µg·h/mL and the “C24 h: Concentration 24 hours post dose” value [5, 7] was 21.6 ng/mL. The “Formation of M3c, CYP2C9 mediated, atropisomer 1 versus atropisomer 2” value (recombinant human CYP2C9) was “significantly greater”.

Reference: patent US20170319552A1, “ATROPISOMERS OF TRIAZOLE DERIVATIVE” (ARDEA BIOSCIENCES, INC., priority 2016, published 2017)
